Source: patent US12404232B2, “Compounds and compositions for intracellular delivery of therapeutic agents” (ModernaTX, Inc., priority 2015, dated 2025)

Key:
Cynomolgus monkeys = assay: Anti-HA (anti-hemagglutinin) antibody expression in Cynomolgus monkeys after intravenous infusion; assay type: in vivo; conditions: i.v. infusion 60 minutes
Description: Results of hEPO expression studies were validated using a standard MC3 formulation and a nanoparticle composition containing Compound 18 including an mRNA encoding an anti-hemagglutinin (anti-HA) antibody. Cynomolgus monkeys were administered a single dose of 0.1 mpk or 0.3 mpk of a nanoparticle composition containing Compound 18 (see Table 33; prepared according to Example 2) including an mRNA encoding anti-HA antibody via intravenous infusion for 60 minutes.

mice = assay: hEPO expression in mice after intravenous administration; assay type: in vivo; conditions: for hEPO expression (pg/ml) 3h / hEPO expression (pg/ml) 6 h / hEPO expression (pg/ml) 24 h: 0.5 mpk
Description: Sample formulations of nanoparticle compositions including different lipids are generally first evaluated according to Luc expression in vivo. The activity of several such compositions was further evaluated using an mRNA encoding hEPO. Nanoparticle compositions including Compounds 6, 18, 25, 30, 108-112, 60, and 122, or MC3 were prepared according to Example 2.
The expression of hEPO and cytokine induction in mice intravenously administered a nanoparticle composition at a dose of 0.5 mpk were measured at 3, 6, and 24 hours. […] The expression of hEPO in mice intramuscularly administered a nanoparticle composition from Table 1B at a dose of 0.01 mpk were measured at 3, 6, and 24 hours. […] (see also FIG. 9.)
Table 12 compares the nanoparticle compositions including compounds according to Formula (I), (IA), (II), (IIa), (IIb), (IIc), (IId) or (IIe) to the compositions including MC3 on the basis of expression and flux levels. […] Thus, these lipids may be useful in nanoparticle composition therapeutics. […]

[1] = Encapsulation of RNA by the nanoparticle composition (QUANT-IT RIBOGREEN RNA assay); assay type: physicochemical
From the text: The efficiency of encapsulation of a therapeutic and/or prophylactic describes the amount of therapeutic and/or prophylactic that is encapsulated or otherwise associated with a nanoparticle composition after preparation, relative to the initial amount provided. The encapsulation efficiency is desirably high (e.g., close to 100%). The encapsulation efficiency may be measured, for example, by comparing the amount of therapeutic and/or prophylactic in a solution containing the nanoparticle composition before and after breaking up the nanoparticle composition with one or more organic solvents or detergents. Fluorescence may be used to measure the amount of free therapeutic and/or prophylactic (e.g., RNA) in a solution. For the nanoparticle compositions described herein, the encapsulation efficiency of a therapeutic and/or prophylactic may be at least 50%, for example 50%, 55%, 60%, 65%, 70%, 75%, 80%, 85%, 90%, 91%, 92%, 93%, 94%, 95%, 96%, 97%, 98%, 99%, or 100%. In some embodiments, the encapsulation efficiency may be at least 80%. In certain embodiments, the encapsulation efficiency may be at least 90%.
For nanoparticle compositions including an RNA, a QUANT-IT™ RIBOGREEN® RNA assay (Invitrogen Corporation Carlsbad, CA) can be used to evaluate the encapsulation of an RNA by the nanoparticle composition. The samples are diluted to a concentration of approximately […] in a TE buffer solution (10 mM Tris-HCl, 1 mM EDTA, pH 7.5). 50 μL of the diluted samples are transferred to a polystyrene 96 well plate and either 50 μL of TE buffer or 50 μL of a 2% Triton X-100 solution is added to the wells. The plate is incubated at a temperature of 37° C. for 15 minutes. The RIBOGREEN® reagent is diluted 1:100 in TE buffer, and 100 μL of this solution is added to each well. The fluorescence intensity can be measured using a fluorescence plate reader (Wallac Victor 1420 Multilablel Counter; Perkin Elmer, Waltham, MA) at an excitation wavelength of, for example, about 480 nm and an emission wavelength of, for example, about 520 nm. The fluorescence values of the reagent blank are subtracted from that of each of the samples and the percentage of free RNA is determined by dividing the fluorescence intensity of the intact sample (without addition of Triton X-100) by the fluorescence value of the disrupted sample (caused by the addition of Triton X-100).
Initial studies were performed to compare the delivery efficiency of nanoparticle compositions including various compounds according to Formula (I), (IA), (II), (IIa), (IIb), (IIc), (IId) or (IIe). The cationic lipid MC3 is a current standard in the art. Accordingly, the standard MC3 formulation including about 50 mol % MC3, about 10 mol % DSPC, about 38.5 mol % cholesterol, and about 1.5 mol % PEG-DMG was used as a basis for this study. Nanoparticle compositions including DSPC as a phospholipid, cholesterol as a structural lipid, PEG-DMG as a PEG lipid, an RNA, and a compound according to Formula (I), (IA), (II), (IIa), (IIb), (IIc), (IId) or (IIe) selected from Compounds 1-159, 168-170, and 173-175 were prepared according to or via methods similar to those described in Examples 1 and 2. The ratios of the lipids were 50:10:38.5:1.5 mol % for the lipid according to Formula (I), (IA), (II), (IIa), (IIb), (IIc), (IId) or (IIe):DSPC:cholesterol:PEG-DMG. The RNA used was an mRNA encoding G5 luciferase (Luc) or G5 hEPO. Tables 1A-1B summarize the content and characteristics of the formulations. […]

rat = assay: Clinical chemistry and hematology in rat after intravenous administration; assay type: in vivo; parameters: unit not given here; conditions: 2 mpk, 48 h post dose
Description: Sample formulations of nanoparticle compositions including different lipids were administered intravenously to rat at a dose of 2 mpk. The expression of various clinical markers was evaluated at 48 h post dose and compared to that induced by administration of MC3 formulations or phosphate buffered saline (PBS).
Table 19 summarizes the hEPO expression, IP-10 induction, liver and spleen levels, and alanine aminotransferase (ALT) and aspartate aminotransferase (AST) measured upon intravenous administration of formulations including Compounds 48, 49, and 50 to rat at 0.2 and 2 mpk and hEPO mRNA. hEPO concentrations were measured 6 hours after administration, while cytokine induction and liver and spleen levels were measured 48 hours after administration. hEPO and IP-10 concentrations are presented in pg/ml, while liver levels are provided in ng/g. ALT and AST levels are presented in international units.

[2] = hEPO mRNA, (50:10:38.5:1.5) (Table 10)

Structure (SMILES) | AUC (Cynomolgus monkeys; dose 0.1 mpk) | AUC (Cynomolgus monkeys; dose 0.3 mpk) | hEPO expression (pg/ml) 3h (mice) | hEPO expression (pg/ml) 6 h (mice) | hEPO expression (pg/ml) 24 h (mice) | EE (%) ([1]; formulated with hEPO mRNA (Table 1B)) | EE (%) [1, 2] | EE (%) ([1]; nanoparticle composition 50:10:38.5:1.5 mol % (Table 1A)) | Alanine aminotransferase (Concentration) (rat) | Aspartate aminotransferase (Concentration) (rat) | Lymphocytes (Concentration) (rat) | Monocytes (Concentration) (rat) | Neutrophils (Concentration) (rat) | hEPO concentrations compared with MC3 formulations at each time point (mice; 0.5 mpk, 3, 6 and 24 hours) | EE (%) ([1]; mRNA encoding anti-HA antibody (Table 33))
CCCCCC=CCC=CCCCCCCCCC(CCCCCCCCC=CCC=CCCCCC)OC(=O)CCCN(C)C (centres unmarked) [MC3, heptatriaconta-6,9,28,31-tetraen-19-yl 4-(dimethylamino)butanoate, reference compound] | 77.05 µg·h/mL | 235.7 µg·h/mL | 1.57e+06 pg/mL | 1.83e+06 pg/mL | 810000 pg/mL | 99.01% | 97.22% | 97.3% | 339 | 325 | 19976 | 1429 | 4962.5 |  | 
CCCCCCCCCOC(=O)CCCCCCCN(CCO)CCCCCCCC(=O)OC(CCCCCCCC)CCCCCCCC [Compound 18, Heptadecan-9-yl 8-((2-hydroxyethyl)(8-(nonyloxy)-8-oxooctyl)amino)octanoate] | 354.3 µg·h/mL | 1055 µg·h/mL | 3e+06 pg/mL | 3.38e+06 pg/mL | 1.8e+06 pg/mL |  | 97.34% |  |  |  |  |  |  | higher hEPO concentrations than MC3 formulations | 79.3%
CCCCCCCCCCCOC(=O)CCCCCN(CCO)CCCCCCCC(=O)OC(CCCCCCCC)CCCCCCCC [Compound 25, Heptadecan-9-yl 8-((2-hydroxyethyl)(6-oxo-6-(undecyloxy)hexyl)amino)octanoate] |  |  |  |  |  |  |  |  | 52 | 124.5 | 15924 | 2122 | 1998 |  | 
